Assay: 12 week lifestyle plus metformin intervention in IFG subjects
Type: in vivo, human
Conditions: 12 weeks lifestyle + metformin 2 g/day, 33 IFG subjects
Source text: 33 subjects with IFG underwent a 12 week intervention including both lifestyle (diet and exercise) changes and drug (metformin, dose: 2 g/day) therapy. At baseline, this study was 49% female with a mean age of 54 and mean BMI of 30.9.

CN(C)C(=N)N=C(N)N [metformin]
% Decrease from baseline, 2hPG: 13.0% | % Decrease from baseline, FPG: 9.4% | % Decrease from baseline, Weight: 6.8%

From US12320798B2, “Diagnostic methods, therapeutic agents and uses thereof” (Metabolon, Inc., priority 2015, dated 2025)
